Key:
HSF-PLA2 = target: T1, HSF-PLA2 (Homo sapiens, UniProt P14555); assay: Assay for Inhibition of HSF-PLA2 In Vitro; assay type: biochemical; settings: for IC50: read-out: Inhib of HSF-PLA2 IC50; for inhibition at 1 µM / inhibition at 5 µM: read-out: Inhib of HSF-PLA2, % inhibition
T1 construct: extracellular enzyme obtained from human synovial fluid (HSF-PLA2); from tissue; host or cells: pooled human synovial fluid, added at 0.1% (v/v)
T1 sequence (P14555 21-144): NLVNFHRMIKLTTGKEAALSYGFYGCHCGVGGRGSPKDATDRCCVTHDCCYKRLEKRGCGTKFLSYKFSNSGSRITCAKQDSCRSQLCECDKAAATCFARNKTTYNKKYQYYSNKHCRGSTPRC
Method: Assay for Inhibition of HSF-PLA2 In Vitro
The PLA2 used in this test is the extracellular enzyme obtained from human synovial fluid (HSF-PLA2).
The optimal conditions which were developed for the assay of HSF-PLA2 inhibitors are summarized as follows. […] The reaction was initiated by the addition of HSF-PLA2 and duplicate samples of the mixture were incubated in 13×100 mm glass tubes with shaking for 30 minutes at 37° C. […] The extraction of lipids from the stopped reaction mixture was conducted by the further additions of […] of chloroform and 1 ml of water with mixing. After centrifuging, the lower chloroform phase was transferred to smaller glass tubes and the solvent was evaporated to dryness with a nitrogen stream. The extracted lipid residue was redissolved in 50 μl of a solution containing carrier oleic acid (0.2 mg/ml) of chloroform-methanol [9 to 1, v/v]). The whole lipid extract was applied to a preactivated (30 minutes at 110° C.) silica gel-impregnated glass fiber thin layer chromatography sheet (ITLC type SG sheet from Gelman Sciences, Inc., Ann Arbor, Mich.) using hexane-acetic acid (100 to 1, v/v) as the developing solvent. This TLC system rapidly (6 minutes) resolved the enzymatically released product, ^14 C-oleic acid, from the unreacted ^14 C-phospholipid substrate. The unsaturated lipids were located on the chromatogram by a brief exposure to iodine vapor. […] A control incubation of substrate in the absence of HSF-PLA2 was performed in each experiment.

PLA2 Rat Paw Edema = assay: Phospholipase A2 Rat Paw Edema; assay type: in vivo, Lewis rats; settings: for inhibition in vivo at 30 mg/kg: Rattus norvegicus, 2 hr, read-out: % Inhib of PLA2 Rat Paw Edema 2 hr (30 mg/kg)
Method: Phospholipase A2 Rat Paw Edema
Representation compounds of the invention were tested in rats to determine their ability to inhibit the acute inflammatory response induced by the injection of snake venom phospholipase A2. Test compounds are administered intraperitoneally or orally to groups of seven Lewis rats (≈200 gm) 1 hr prior to phospholipase A2 administration. The test compounds are dissolved in dimethyl sulfoxide for intraperitoneal administration and dissolved or suspended in Labrafil M-1944CS for oral administration. At 0 hr, 5 ug (10 units) of purified phospholipase A2 from Naja naja venom (Sigma Chem. Co.) dissolved in 0.1 mL of pyrogen free saline is injected subplantarly into the right hind paw to elicit the inflammatory response. The volume (in mL) of the right hind paw is measured by immersion of the paw to the level of the lateral malleolus in an aqueous plethysmometer immediately prior to the injection of phospholipase A2 and then at 0.5, 2 and 4 hr after phospholipase A2 injection. The paw edema is calculated by subtracting the zero time reading from the readings taken after injection. The percent change of the edema volume from the vehicle treated control is calculated to determine the activity of the test compound. Statistical analysis of the mean paw edema values of the control versus the treated groups is performed using Student's t-test. Significance of changes from mean value for vehicle-treated animals (*p<0.05, **p<0.01, ***p<0.001, ns/not significant).

[1] = test system: Croton Oil Mouse Ear Edema; assay: Croton Oil Mouse Ear Edema Test; assay type: in vivo, CD-1 mice; settings: topical, coapplied, 6 hours
Method: Twenty five μl of a 1% croton oil solution [dissolved in a mixture of pyridine/water/diethyl ether at a ratio of 5/20/75 (croton oil vehicle)] are applied to the outer side of the right ear of 3-4 week old made CD-1 mice (8 animals per group). The test compounds are dissolved directly in the 1% croton oil solution at various concentrations and coapplied. Control animals receive 25 μl of croton oil vehicle on the right ear. Biopsy punches are removed at 6 hours from the right ear of the animals using a 6 mm skin trephine (Roboz, Washington, D.C.) and the wet weight of the ear punches is determined. The weight of the biopsy punches is a measure of ear inflammation, primarily edema. The data are expressed as percent inhibition relative to control groups.

SMILES | IC50 (HSF-PLA2) [nM] | inhibition in vivo at 30 mg/kg (PLA2 Rat Paw Edema) [%] | % Inhib of Croton Oil Mouse Ear Edema (1 mg) [1] [%] | inhibition at 1 µM (HSF-PLA2) [%] | inhibition at 5 µM (HSF-PLA2) [%] | % Inhib of PLA2 Rat Paw Edema 2 hr (PLA2 Rat Paw Edema; (10 mg/kg)) [%]
CCCCCCCCCCCCCCCCCCNC(=O)c1cccc(N(CC(=O)O)CC(=O)O)c1 [Example 42] | 400 | 38 | 0 | – | – | –
CCCCCCCCCC(=O)Oc1ccc(N(CC(=O)O)CC(=O)O)cc1OC(=O)CCCCCCCCC [Example 123, N-(Carboxymethyl)-N-[3,4-bis[(1-oxodecyl)oxy]phenyl]glycine] | 480 | 4 | 58 | – | – | –
CCCCCCCCCCCCCCCCCNC(=O)Oc1cccc(N(CC(=O)O)CC(=O)O)c1 [Example 36c, N-(carboxymethyl)-N-[3-[[(heptadecylamino)carbonyl]oxy]phenyl]glycine] | 1000 | 0 | 0 | – | – | –
CCCCCCCCCCCCCCOc1ccc(N(CC(=O)O)CC(=O)O)cc1OCCCCCCCCCCCCCC [Example 119, N-(Carboxymethyl)-N-[3,4-bis(tetradecyloxy)phenyl]glycine] | – | 16 | 49 | 36 | – | –
CCCCCCCCCCCCCCCCCCOc1cc(N(CC(=O)O)CC(=O)O)cc([N+](=O)[O-])c1 [Example 93, N-(Carboxymethyl)-N-[3-nitro-5-(octadecyloxy)phenyl]glycine] | – | 20 | 0 | 56 | – | –
CCCCCCCCCCCCCCCCCCOc1cc(OCCCOc2ccc(OC)cc2)cc(N(CC(=O)O)CC(=O)O)c1 [Example 58k, N-(carboxymethyl)-N-[3-[3-(4-methoxyphenoxy)propoxy]-5-(octadecyloxy)phenyl]glycine] | 50 | 0 | 85 | – | – | –
CCCCCCCCCCCCCCCCCCOc1cc(OCCCOc2ccc(C(=O)OC)cc2)cc(N(CC(=O)O)CC(=O)O)c1 [Example 58o, N-(carboxymethyl)-N-[3-[3-[4-(methoxycarbonyl)phenoxy)propoxy]-5-(octadecyloxy)phenyl]glycine] | 100 | 0 | 30 | – | – | –
CCCCCCCCCCCCCCCCCCOc1cc(OCc2ccc3ccccc3n2)cc(N(CC(=O)O)CC(=O)O)c1 [Example 148, N-(Carboxymethyl)-N-[3-(octadecyloxy)-5-[(2-quinolinyl)methoxy]phenyl]glycine] | – | 37 | 26 | 91 | – | –
CCCCCCCCCCOc1cc(C(=O)O)cc(N(CC(=O)O)CC(=O)O)c1 [Example 69d, N-[3-carboxy-5-(decyloxy)phenyl]-N-(carboxymethyl)glycine] | – | 0 | 63 | 7 | – | –
CCCCCCCCCCCCCCCCCCNC(=O)Nc1cccc(N(CC(=O)O)CC(=O)O)c1 [Example 36e, N-(carboxymethyl)-N-[3-[[(octadecylamino)carbonyl]amino]phenyl]glycine] | – | 30 | 31 | – | 74 | –
CCCCCCCCCCCCCCCCCCOc1cc(OCCCCC(=O)O)cc(N(CC(=O)O)CC(=O)O)c1 [Example 65, N-[3-(4-Carboxybutoxy)-5-(octadecyloxy)phenyl]-N-(carboxymethyl)glycine] | 860 | 35 | 91 | – | – | –
CCCCCCCCCCOc1cc(OCCCCCCCCCC)cc(N2CC(=O)OC(=O)C2)c1 [Example 30, 4-[3,5-bis(decyloxy)phenyl]2,6-morpholinedione] | 470 | 91 | 63 | – | – | –
CCCCCCCCCCOc1cc(OCCCCCCCCCC)cc(N(CC(=O)O)CC(=O)OCCN(CC)CC)c1.Cl [Example 33, N-(2-Diethylaminoethoxy-2-oxoethyl)-N-[3,5-bis(decyloxy)phenyl]glycine monohydrochloride salt] | – | 15 | 25 | -5 | – | –
CCCCCCCCCCCCCCCCCCOc1cc(OCC(=O)O)cc(N(CC(=O)O)CC(=O)O)c1 [Example 58c, N-[3-(carboxymethoxy)-5-(octadecyloxy)phenyl]-N-(carboxymethyl)glycine] | 2800 | 39 | 0 | – | – | –
CCCCCCCCCCCCCCCCCCOc1cc(N(CC(=O)O)CC(=O)O)cc([S+]([O-])CC(=O)O)c1 (stereo not drawn) [Example 168, [[3-[bis(Carboxymethyl)amino]-5-(octadecyloxy)phenyl]sulfinyl]acetic acid] | – | 45 | 83 | 26 | – | –
CCCCCCCCCCCCCCCCCCOc1cc(O)cc(N(CC(=O)O)CC(=O)O)c1 [Example 81, N-(Carboxymethyl)-N-[3-hydroxy-5-(octadecyloxy)phenyl]glycine] | 230 | – | 69 | – | – | 44
CCCCCCCCCCNC(=O)c1cc(NCC(=O)O)cc(C(=O)NCCCCCCCCCC)c1 [Example 12, N-[3,5-Bis[(decylamino)carbonyl]phenyl]glycine] | 5200 | 34 | 70 | – | – | –
COC(=O)CCCCCCCCCCOc1cc(OCCCCCCCCCCC(=O)OC)cc(N(CC(=O)O)CC(=O)O)c1 [Example 6j, N-(carboxymethyl)-N-[3,5-bis[(11-methoxy-11-oxoundecyl)oxy]phenyl]glycine] | 300 | 0 | 66 | – | – | –
CCCCCCCCCCN(CCCCCCCCCC)C(=O)c1cccc(N(CC(=O)O)CC(=O)O)c1 [Example 174] | – | 46 | 29 | – | 74 | –
CCCCCCCCCCCCCCCCCCOc1cc(OCCCOc2ccc(O)cc2)cc(N(CC(=O)O)CC(=O)O)c1 [Example 58l, N-(carboxymethyl)-N-[3-[3-(4-hydroxyphenoxy)propoxy]-5-(octadecyloxy)phenyl]glycine] | – | 53 | 76 | 81 | – | –
CCCCCCCCCCCCCCCCCCOc1cc(N)cc(N(CC(=O)O)CC(=O)O)c1 [Example 94, N-(Carboxymethyl)-N-[3-amino-5-(octadecyloxy)phenyl]glycine] | 420 | 28 | 10 | – | – | –
CCCCCCCCCCOC(=O)c1cc(C(=O)OCCCCCCCCCC)cc(N(CC(=O)O)CC(=O)O)c1 [Example 6v, N-(carboxymethyl)-N-[3,5-bis[(decyloxy)carbonyl]phenyl]glycine] | – | 9 | 80 | 73 | – | –
CCCCCCCCCCCCCCCCCCOc1cc(C(N)=O)cc(N(CC(=O)O)CC(=O)O)c1 [Example 75, N-(Carboxymethyl)-N-[(3-carbamoyl)-5-(octadecyloxy)phenyl]glycine] | – | 33 | 15 | – | 84 | –
CCCCCCCCCCOc1cc(OCCCCCCCCCC)cc(N(CC(N)=O)CC(=O)O)c1.N [Example 32, N-(Carbamoylmethyl)-N-[3,5-bis(decyloxy)phenyl]glycine ammonium salt] | – | 23 | 54 | 48 | – | –
CCCCCCCCCCCCCCOc1cc(C(=O)O)cc(N(CC(=O)O)CC(=O)O)c1 [Example 69b, N-[3-carboxy-5-(tetradecyloxy)pyhenyl]-N-(carboxymethyl)glycine] | – | 4 | 72 | 18 | – | –

Source: patent publication US5324747A, “N-substituted anilines, inhibitors of phospholipases A2” (Hoffmann-La Roche Inc., priority 1992, dated 1994)
